Results: patent publication US20100130432A1, “Non-Natural Amino Acids and Neurotensin Analogues Thereof” (priority 2005, published 2010)
Counter-ions that a name gives are not always drawn. Marks after values point to notes of the source that are not given here. Non-standard residues stand in square brackets, D forms with d. Residues, ends and D or L forms follow the SMILES beside them. No end group written: not given here. *: point of attachment. X5 = [N-]=[N+]=N[C@@H](CCCCCN)C(=O)*; X2 = C[C@@H](CCC[N+](C)(C)C)C(=O)*; Tle = CC(C)(C)[C@H](N)C(=O)O; hLys = NCCCCC[C@H](N)C(=O)O; X1 = C[C@@H](CCCCCN)C(=O)*; Orn = NCCC[C@H](N)C(=O)O

Key:
NTR-1 = NTR-1 (Homo sapiens, UniProt P30989); experiment: Competitive NTR binding versus radiolabeled NT[8-13]
NTR-1, sequence (P30989 whole entry, species assumed): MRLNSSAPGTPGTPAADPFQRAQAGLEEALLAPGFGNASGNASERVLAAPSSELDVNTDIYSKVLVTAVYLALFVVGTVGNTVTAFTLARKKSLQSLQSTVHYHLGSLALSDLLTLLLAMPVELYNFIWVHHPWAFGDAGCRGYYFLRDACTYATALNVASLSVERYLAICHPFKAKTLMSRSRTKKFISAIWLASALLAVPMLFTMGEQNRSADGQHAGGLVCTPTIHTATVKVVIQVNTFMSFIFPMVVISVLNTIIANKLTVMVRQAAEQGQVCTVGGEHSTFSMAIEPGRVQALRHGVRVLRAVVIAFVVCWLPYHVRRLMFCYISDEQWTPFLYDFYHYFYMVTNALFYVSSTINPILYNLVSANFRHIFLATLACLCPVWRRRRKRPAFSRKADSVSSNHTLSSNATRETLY

NTR-2 = NTR-2 (Homo sapiens, UniProt O95665); experiment: as above
NTR-2, sequence (O95665 whole entry, species assumed): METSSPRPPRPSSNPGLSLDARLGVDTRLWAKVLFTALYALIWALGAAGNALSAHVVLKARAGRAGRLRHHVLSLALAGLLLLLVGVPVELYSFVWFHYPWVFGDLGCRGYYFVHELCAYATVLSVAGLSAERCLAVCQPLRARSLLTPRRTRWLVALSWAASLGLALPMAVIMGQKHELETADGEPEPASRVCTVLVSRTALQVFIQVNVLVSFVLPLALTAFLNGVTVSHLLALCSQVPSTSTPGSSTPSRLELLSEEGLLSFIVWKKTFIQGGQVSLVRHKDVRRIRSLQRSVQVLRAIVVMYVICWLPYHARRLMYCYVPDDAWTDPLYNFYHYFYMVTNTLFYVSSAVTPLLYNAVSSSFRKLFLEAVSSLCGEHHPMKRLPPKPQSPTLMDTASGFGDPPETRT

rats [1] = experiment: Clinical observation after high IV or PO dose; format: in vivo, rat
Description: During the 2 and 24 hour post-dosing clinical observation periods, measurements of core body temperatures were taken.

[2] = Pharmacokinetics of ABS201 in blood/plasma (LC/MS/MS); details: SD, rat, in vivo, iv, 100 mg/kg
Description: (§1) At selected time points, blood was removed or brain harvested and the concentration of the peptide analog determined using LC/MS/MS.
(§2) These samples were then used for the determination of plasma and brain drug levels by LC/MS/MS for estimating BBB penetration and pharmacokinetic parameters.

[3] = Brain distribution of ABS201 (LC/MS/MS)
Description: as §1, §2

[4] = Pharmacokinetics of ABS212 in plasma (LC/MS/MS); format: in vivo, rat
Description: These samples were used for the determination of plasma parent drug concentrations by LC/MS/MS for estimating pharmacokinetic parameters and oral bioavailability.

rats [5] = experiment: Catalepsy, horizontal bar test; details: IP 1 mg/kg, cut-off 30 sec
Description: (§3) Cataleptic Analysis. […] To circumvent these potential confounding factors, tests are performed on an animal only once in a quiet, controlled environment.
(§4) Catalepsy Assessment. […] Rats were given an IP injection of peptide (5 mg/Kg), saline, or haloperidol (1 mg/kg). After 3 hours, catalepsy was measured using the horizontal bar test. Briefly, the front paws were placed directly on a horizontal bar 5 mm in diameter placed 7.5 cm above the cage floor. The rat was held in this position for 3 sec and then released. The time from release until the paws return to the cage floor was measured and recorded. A cut-off time of 30 sec was observed; this indicated a fully cataleptic animal as cataleptic animals are frozen to the bar. […] Measures were repeated every 30 min for 4 hr. Data are means±SEM (p<0.01).

rats [6] = experiment: Tail flick assay; format: in vivo, rat; details: ABS212 10 mg/kg, Morphine 5 mg/kg
Description: The Tail Flick Assay. Each of 6 rats per experiment were placed in a Plexiglas restraint box. A standard laboratory hot water bath was maintained at 49° C. The distal 3 cm of the rat's tail was submerged into the water, and the time from insertion to tail flick or removal of tail from the water was recorded. Animals are removed immediate4ly at the cutoff latency of 10 seconds. MPEs were calculated, with a MPE of 100% corresponding to the rat's tail remaining in the water bath for 10 seconds. This was repeated 3 times. The tail was dried and allowed to rest for 20 seconds between trials. The rat was then given the appropriate amount of peptide and the experiment repeated at 30 and 60 minutes. Treatment conditions were distributed over the study in a counterbalanced design to control for such factors as calendar period and order of dosing. N=6 or greater for all experiments.

rats [7] = experiment: Formalin assay; format: in vivo, rat; details: ABS212 10 mg/kg, Morphine 5 mg/kg
Description: Formalin Assay. […] Animals were scored every minute on the following scale: 0=forepaw flat on floor, 1=forepaw just touching floor, 2=forepaw held up off of floor, and 3=forepaw licked or bitten. […] The animals were immediately be placed into the observation cages, and their behavior recorded over the following 30 minutes. After each experiment, rats were euthanized with CO2 followed by cervical dislocation. An average Pain Rating over time versus the baseline and formalin-only controls for each peptide tested were plotted, and statistical analysis were performed using a one-way analysis of variance (ANOVA). Differences were considered statistically significant at the 5% confidence interval. N=6 or greater for all experiments.

rats [8] = experiment: d-Amphetamine induced hyperlocomotion / locomotor activity chambers; format: in vivo, rat; details: rat, in vivo
Description: Sound- and light-attenuated locomotor cages are used to measure the ability of potential candidates to decrease d-amphetamine-induced hyperactivity.
d-Amphetamine induced hyperlocomotion. Experimentally I male Sprague-Dawley rats were housed as described above. Rats were handled for three days prior to testing to minimize experimenter induced hyperlocomotion on test day. For experiments, sound- and light-attenuated automated photocell beam activity chambers (AccuScan Instruments, Inc., Columbus, Ohio) were used to measure locomotion. Cages were connected to a VersaMax Analyzer (AccuScan) in conjunction with an IBM computer using VersaMax 1.80-0146 software (AccuScan) to record vertical and horizontal activity. Total activity values recorded were the sum of vertical and horizontal activity. […]
Rats were placed in the activity chambers for 30 minutes to habituate and establish baseline activity levels. Then, rats were removed and given an IP or oral dose of peptide (N=7) or saline (N=8) and returned to the chamber to establish the peptide's effect on spontaneous activity levels. About 30 minutes after administration, rats were removed and given an IP injection of d-amphetamine (1 mg/kg) or vehicle and returned to the chamber for a further 1 hr to assess the effect of the peptide on induced hyperlocomotion.
Chronic Testing Protocols.
Separate two-factor ANOVAs for DOSE X TIME were performed for each different time-phase of the assay. Phases for the IP dosing and oral dosing experiments consisted of habituation (time points 10-60), drug (time points 70-120), and amphetamine (time points 130-240).

rats [9] = details: rat, in vivo
Description: as §3, §4

rats [10] = experiment: Induced hypothermia (rectal temperature) after IP or oral administration; details: IP 5 mg/kg, Table 5
Description: Hypothermia as a Preliminary Screen of CNS Activity.
Animal Restraint. Rats were restrained in Plas-Labs® plastic cages fitted with wooden dowels to restrict movement. Rectal temperature probes (Physitemp®, RET-2, Clifton, N.J.), lubricated with mineral oil, were inserted into the rectum of each animal. Probes were connected to a microprobe thermometer (Physitemp®, BAT-12) in conjunction with a thermocouple selector (Physitemp®, SWT-5). Rats were allowed to acclimate to the cages for 1 hr prior to IP injection.
Peptide Preparation. […] For oral administration, the test article was administered directly into the animals' stomach by gavaging. Controls involved the administration of 0.9% NaCl. Thus, peptides were dissolved in saline, and following the equilibration period, rats were given an IP injection of peptide (5 mg/kg) or saline (1 mL/kg). […]
Hypothermia. […] For each rat, a thermistor probe was placed 4.5 cm into the rectum; baseline temperatures were recorded for 1 hr to allow habituation to the cages prior to injection of compound. […]
The former activity is most easily monitored by measuring the extent of induced hypothermia (core body temperature loss), which is a measure of NTR-1 binding and agonism and thus antipsychotic activity. Hypothermia is followed routinely over time through insertion of a thermometer probe hooked up to a digital readout box into the anus of the rats.

rats [11] = experiment: Hotplate assay; format: in vivo, rat; details: for MPE (I.P.) / Tmax (I.P.) of % MPE / MPE (oral) / Tmax (Oral) of % MPE: hotplate; for MPE (I.P.) / Tmax (I.P.) of % MPE: IP at 10 mg/kg; for MPE (oral) / Tmax (Oral) of % MPE: orally at 20 mg/kg
Description: Animals. Experimentally naïve male Sprague-Dawley rats from Charles River Laboratories, Raleigh, N.C. (230-260 g) or Harlan, Prattville Ala. (240-280 g), were maintained 4 per cage in animal quarters on a regular light/dark cycle (lights on 0600-1800) with ad libitum food and water for approximately 1 week before the experiment. The range of body weights on the 2 days of testing was 230-260 grams. The experiment was done on one day, with animals allowed to recover for three days before experiments are repeated.
Peptide Preparation. Test articles are prepared at the desired concentration in saline for either IP injection or gavage administration with N=6 for each dose and vehicle. Morphine (5 mg/kg) is used as a control for certain protocols. […] Apomorphine HCl (Sigma-Aldrich, St. Louis, Mo.) was dissolved in distilled water at a concentration of 5 mg/mL within 40 minutes of administration for injection at 1 mL/kg S.C. to give a dose of 5 mg/kg. When complete ED50s are determined, dosing range of the peptide will be 10, 3, 1, 0.3, 0.1 of the estimated ED50, covering two log orders of range.
The Hotplate Assay. The hotplate assay, a standard rat model for […] pain (see Le Bars et al., Pharmacol. Rev. 53: 597-652 (2001) and Chapman et al., Pain 22:1-31 (2002)), was performed as follows. A hotplate maintained at 52° C. to 53° C. was enclosed on four sides in a plexiglass chamber that extended 6 in. above the plate. Animals were placed on the plate, and the latency between the time a rat was placed on the surface and when it lifts or licks a back paw (indicative of pain sensation) was determined. Animals are removed immediately at the cutoff latency of 30 seconds. Assays are scored as the percent of maximal possible effect (% MPE) defined as 100%, which corresponds to the rats remaining on the hotplate for 30 seconds without responding. Thus, % MPE are calculated using the following equation: % MPE=[(post-drug latency−pre-drug latency)/(cut-off pre-drug latency)]×100%. N=6 or greater for all experiments.
Tmax indicates the time after dosing in which a maximum response was observed.

## CC(C)C[C@H](NC(=O)[C@@H](NC(=O)[C@H](Cc1ccc(O)cc1)NC(=O)[C@@H]1CCCN1C(=O)[C@H](CCCNC(=N)N)NC(=O)[C@H](CCCCCN)N=[N+]=[N-])C(C)(C)C)C(=O)O [ABS13, N3-L-homolysine-Arg-Pro-Tyr-tertLeu-Leu-COOH] (X5-RPY[Tle]L-OH)
NTR-1
  IC50: 5.7 ± 0.37 nM
NTR-2
  IC50: 11.1 ± 0.1 nM

## CC(C)C[C@H](NC(=O)[C@@H](NC(=O)[C@H](Cc1ccc(O)cc1)NC(=O)[C@@H]1CCCN1C(=O)[C@H](CCCNC(=N)N)NC(=O)[C@@H](C)CCCCCN)C(C)(C)C)C(=O)O [ABS201 HCl] (X1-RPY[Tle]L-OH)
Rats [1]; IV 50 mg/kg
  clinical observation 24 hour post-dosing: grossly normal; hypothermia was absent
  clinical observation immediately after dosing: obviously sedated
  clinical observation two hour post-dosing: marked hypothermia was present
Rats [1]; PO 250 mg/kg
  clinical observation: grossly normal at all time points

## CC(C)C[C@H](NC(=O)[C@@H](NC(=O)[C@H](Cc1ccc(O)cc1)NC(=O)[C@@H]1CCCN1C(=O)[C@H](CCCNC(=N)N)NC(=O)[C@@H](C)CCCCCN)C(C)(C)C)C(=O)O [ABS201.2HCl] (X1-RPY[Tle]L-OH)
[2]
  Vd: 16.1 L/kg
  clearance: 380 mL/min/kg
[3]; 15 min intravenous infusion 100 mg/kg
  AUC0-t in brain: 60.96 ng·h/g
[3]; SD, rat, brain, iv, 100 mg/kg
  Cmax: 32.9 ng/g
  half-life: 4.85 h

## CC(C)C[C@H](NC(=O)[C@@H](NC(=O)[C@H](Cc1ccc(O)cc1)NC(=O)[C@@H]1CCCN1C(=O)[C@H](CCCNC(=N)N)NC(=O)[C@@H](C)CCC[N+](C)(C)C)C(C)(C)C)C(=O)O [ABS-212.2HCL] (X2-RPY[Tle]L-OH)
[4]; IV bolus 1 mg/kg
  clearance as % of rat hepatic blood flow: 32.33%
[4]; IV bolus 5 mg/kg
  clearance as % of rat hepatic blood flow: 12.08%
[4]; IV bolus […]
  clearance as % of rat hepatic blood flow: 12.08%

## O=C(CCCN1CCC(O)(c2ccc(Cl)cc2)CC1)c1ccc(F)cc1 [Haloperidol, reference compound]
Rats [5]
  duration of catalepsy: greater than 30 sec

## CN1CC[C@]23c4c5ccc(O)c4O[C@H]2[C@@H](O)C=C[C@H]3[C@H]1C5 [Morphine, reference compound]
Rats [6]
  MPE (0 min): 0.03 +/− 0.05
  MPE (30 min): 63.7 +/− 41.9
  MPE (60 min): 67.5 +/− 25.8
Rats [7]
  analgesic effect over the time course: loses activity after 30 minutes

## CC[C@H](C)[C@H](NC(=O)[C@H](Cc1ccc(O)cc1)NC(=O)[C@@H]1CCCN1C(=O)[C@H](CCCNC(=N)N)NC(=O)[C@@H](N)CCCNC(=N)N)C(=O)N[C@@H](CC(C)C)C(=O)O [NT(8-13), NH2-Arg-Arg-Pro-Tyr-Ile-Leu-COOH, reference compound]
Rats [8]
  Hyperlocomotion Inhibition (routes of administration): CNS administration
  Inhibits locomotor activity (routes of administration): CNS administration
Rats [9]
  catalepsy: No
Rats [10]
  tmax (min) Time to maximal temperature decrease: 90 min
  Δ in BT (° C.) Decrease in body temperature measured at tmax: −0.45 ± 0.17^d ° C.

## Arg-Arg-Pro-Tyr-t-Leu-Leu [ABS213]
Rats [11]
  MPE (I.P.): 48%
  Tmax (I.P.) of % MPE: 30

## Arg-Arg-Pro-Tyr-tLeu-Leu [ABS237]
Rats [11]
  MPE (I.P.): 50%
  Tmax (I.P.) of % MPE: 30

## Boc-Arg-Pro-Tyr-t-Leu-Leu [ABS700]
Rats [11]
  MPE (I.P.): 51%
  Tmax (I.P.) of % MPE: 90

## KRPY[Tle]L [ABS229]
Rats [11]
  MPE (I.P.): 48%
  Tmax (I.P.) of % MPE: 60

## Lys-Arg-Pro-Tyr-t-Leu-Leu [ABS205]
Rats [11]; gavage 20 mg/kg
  analgesic effect relative to ABS212: as much or more active than ABS212
Rats [11]
  MPE (I.P.): 86%
  Tmax (I.P.) of % MPE: 15-30
  MPE (oral): 66%
  Tmax (Oral) of % MPE: 30

## Orn-Arg-Pro-Tyr-t-Leu-Leu [ABS209]
Rats [11]
  MPE (I.P.): 89%
  Tmax (I.P.) of % MPE: 60

## [Orn]RPY[Tle]L [ABS233]
Rats [11]
  MPE (I.P.): 51%
  Tmax (I.P.) of % MPE: 45

## [hLys]RPY[Tle]L [ABS225]
Rats [11]
  MPE (I.P.): 100%
  Tmax (I.P.) of % MPE: 15-45
  MPE (oral): 38%
  Tmax (Oral) of % MPE: 30
